In PubChem BioAssay AID330 (DTP/NCI, 2004):
Where “and” joins values, the source holds several entries; their conditions need not be identical. Equal values may be shown once. Inconclusive results and toxic doses are left out. Rule for the calls: active = survival T/C of 150% or more; inactive = T/C below 125% in these data.

Tested on: P388 leukemia ip, CD2F1 mice, survival T/C
Assay: NCI In Vivo Anticancer Drug Screen. Data for tumor model P388 Leukemia (intraperitoneal) in CD2F1 (CDF1) mice
Conditions: endpoint: median survival time, higher = longer survival
In short: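 Mice carrying the transplanted tumor received test compound or vehicle. Survival was recorded in each group, and the value is the treated-group measurement divided by that of the vehicle-treated control group.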

[1] = dose: 60.0 mg/kg/injection, schedule: Q01DX005 (ip), vehicle: saline with Tween-80
[2] = dose: 120.0 mg/kg/injection, schedule: Q01DX005 (ip), vehicle: saline with Tween-80
[3] = dose: 240.0 mg/kg/injection, schedule: Q01DX005 (ip), vehicle: saline with Tween-80
[4] = dose: 60.0 mg/kg/injection, schedule: Q01DX005 (ip), vehicle: saline
[5] = dose: 120.0 mg/kg/injection, schedule: Q01DX005 (ip), vehicle: saline
[6] = dose: 240.0 mg/kg/injection, schedule: Q01DX005 (ip), vehicle: saline
[7] = dose: 50.0 mg/kg/injection, schedule: Q01DX005 (ip), vehicle: saline with Tween-80
[8] = dose: 100.0 mg/kg/injection, schedule: Q01DX005 (ip), vehicle: saline with Tween-80
[9] = dose: 200.0 mg/kg/injection, schedule: Q01DX005 (ip), vehicle: saline with Tween-80
[10] = dose: 50.0 mg/kg/injection, schedule: Q01DX009 (ip), vehicle: saline with Tween-80
[11] = dose: 100.0 mg/kg/injection, schedule: Q01DX009 (ip), vehicle: saline with Tween-80
[12] = dose: 200.0 mg/kg/injection, schedule: Q01DX009 (ip), vehicle: saline with Tween-80
[13] = dose: 50.0 mg/kg/injection, schedule: Q01DX005 (ip), vehicle: Klucel (hydroxypropylcellulose) (HPC)
[14] = dose: 100.0 mg/kg/injection, schedule: Q01DX005 (ip), vehicle: Klucel (hydroxypropylcellulose) (HPC)
[15] = dose: 25.0 mg/kg/injection, schedule: Q01DX009 (ip), vehicle: saline with Tween-80
[16] = dose: 100.0 mg/kg/injection, schedule: Q04DX003 (ip), vehicle: saline with Tween-80
[17] = dose: 200.0 mg/kg/injection, schedule: Q04DX003 (ip), vehicle: saline with Tween-80
[18] = dose: 400.0 mg/kg/injection, schedule: Q04DX003 (ip), vehicle: saline with Tween-80

Measured: T/C

Cc1cc(O[Si](C)(C)C)nc(O[Si](C)(C)C)n1
inactive: [1] 106 % of control | [2] 110 % of control | [3] 105 % of control

OCC1OC(Sc2ncc[nH]2)C(O)C(O)C1O (stereo not drawn)
inactive: [4] 94 % of control and 97 % of control | [5] 95 % of control and 96 % of control | [6] 97 % of control and 90 % of control

O=S(=O)(Nc1nccs1)c1ccc(NCc2c3ccccc3nc3cc(Cl)ccc23)cc1
inactive: [7] 88 % of control | [8] 88 % of control | [9] 97 % of control

Cc1ncn2c(C)nnc2c1C
inactive: [10] 102 % of control | [11] 100 % of control | [12] 102 % of control

O=C1CN(N2CCOCC2)CC(=O)N2CCCCN12
inactive: dose: 50.0 mg/kg/injection, schedule: Q01DX005 (ip), vehicle: saline 100 % of control | dose: 100.0 mg/kg/injection, schedule: Q01DX005 (ip), vehicle: saline 109 % of control | dose: 200.0 mg/kg/injection, schedule: Q01DX005 (ip), vehicle: saline 109 % of control

NNC(=O)CCn1[nH]c(=O)c(Cl)c(Cl)c1=O
inactive: [7] 100 % of control | [8] 100 % of control | [9] 100 % of control

CCOC1(OCC)Oc2c(c3ccccc3c3ccccc23)/C1=C1\c2c(c3ccccc3c3ccccc23)OC1(OCC)OCC
inactive: [7] 94 % of control | [8] 92 % of control

Cc1nc2c3c4c(sc3nc(C)n2n1)CCCC4
inactive: [13] 105 % of control | [14] 100 % of control | dose: 200.0 mg/kg/injection, schedule: Q01DX005 (ip), vehicle: Klucel (hydroxypropylcellulose) (HPC) 98 % of control

COC(=O)C(=O)c1c(C(=O)OC)nc2nnc(N)n2c1-c1ccc(F)cc1
inactive: dose: 30.0 mg/kg/injection, schedule: Q01DX005 (ip), vehicle: saline with Tween-80 93 % of control | [1] 99 % of control | [2] 88 % of control | [3] 93 % of control

Cc1c2c(nc3ccccc13)-c1ccccc1C(C)(C)C2O (stereo not drawn)
inactive: dose: 100.0 mg/kg/injection, schedule: Q01DX001 (ip), vehicle: saline with Tween-80 99 % of control | dose: 200.0 mg/kg/injection, schedule: Q01DX001 (ip), vehicle: saline with Tween-80 106 % of control | dose: 400.0 mg/kg/injection, schedule: Q01DX001 (ip), vehicle: saline with Tween-80 106 % of control

COc1cc(O)c2c(O)c3c(c4c2c1[C@]1(C4)C(C)=CCCC1(C)C)[C@H](O)[C@@]1(O)CC(=O)C(C(N)=O)=C(O)[C@@]1(O)C3=O
inactive: dose: 6.25 mg/kg/injection, schedule: Q04DX003 (ip), vehicle: saline with Tween-80 100 % of control | dose: 12.0 mg/kg/injection, schedule: Q01DX009 (ip), vehicle: saline with Tween-80 112 % of control | dose: 12.5 mg/kg/injection, schedule: Q04DX003 (ip), vehicle: saline with Tween-80 100 % of control | dose: 25.0 mg/kg/injection, schedule: Q01DX009 (ip), vehicle: Klucel (hydroxypropylcellulose) (HPC) 120 % of control and 121 % of control | dose: 25.0 mg/kg/injection, schedule: Q04DX003 (ip), vehicle: saline with Tween-80 113 % of control | dose: 50.0 mg/kg/injection, schedule: Q01DX009 (ip), vehicle: Klucel (hydroxypropylcellulose) (HPC) 111 % of control

C[C@]12CCC(=O)C=C1CC[C@@H]1[C@@H]2[C@@H](O)C[C@@]2(C)[C@H]1CC[C@]2(C)O
inactive: [15] 90 % of control | [10] 100 % of control | [11] 100 % of control | [16] 100 % of control | [17] 100 % of control | [18] 100 % of control

COc1ccc2c(c1OC)CN1CCc3cc4c(cc3C1C2C)OCO4 (stereo not drawn)
inactive: dose: 50.0 mg/kg/injection, schedule: Q04DX003 (ip), vehicle: distilled water + Tween-80 91 % of control | dose: 100.0 mg/kg/injection, schedule: Q04DX003 (ip), vehicle: distilled water + Tween-80 96 % of control | dose: 200.0 mg/kg/injection, schedule: Q04DX003 (ip), vehicle: distilled water + Tween-80 91 % of control | dose: 400.0 mg/kg/injection, schedule: Q04DX003 (ip), vehicle: distilled water + Tween-80 89 % of control

CCOC(=O)c1ccc(NCC#N)cc1
inactive: [16] 100 % of control | [17] 100 % of control | [18] 100 % of control

COc1cccc2c1C(=O)c1c(OC)c(C=O)cc(OC)c1C2=O
inactive: dose: 50.0 mg/kg/injection, schedule: Q01DX009 (ip), vehicle: water 99 % of control | dose: 100.0 mg/kg/injection, schedule: Q01DX009 (ip), vehicle: water 100 % of control | dose: 200.0 mg/kg/injection, schedule: Q01DX009 (ip), vehicle: water 98 % of control

COc1nc2ccccc2c2ccnn12
inactive: dose: 4.0 mg/kg/injection, schedule: Q01DX009 (ip), vehicle: saline with Tween-80 106 % of control | dose: 8.0 mg/kg/injection, schedule: Q01DX009 (ip), vehicle: saline with Tween-80 106 % of control | dose: 16.0 mg/kg/injection, schedule: Q01DX009 (ip), vehicle: saline with Tween-80 109 % of control

CNC(=O)OCc1ccccc1-c1ccccc1
inactive: [10] 98 % of control | [11] 97 % of control | [12] 95 % of control

Cc1cccc(Nc2c(C(=O)O)cnc3cc4c(cc23)OCO4)c1C
inactive: dose: 30.0 mg/kg/injection, schedule: Q01DX005 (ip), vehicle: Klucel (hydroxypropylcellulose) (HPC) 94 % of control | dose: 60.0 mg/kg/injection, schedule: Q01DX005 (ip), vehicle: Klucel (hydroxypropylcellulose) (HPC) 96 % of control | dose: 120.0 mg/kg/injection, schedule: Q01DX005 (ip), vehicle: Klucel (hydroxypropylcellulose) (HPC) 99 % of control and 103 % of control | dose: 240.0 mg/kg/injection, schedule: Q01DX005 (ip), vehicle: Klucel (hydroxypropylcellulose) (HPC) 111 % of control

CCOC(=O)c1c(N)c(=O)oc2c3c(c(O)cc12)OCO3
inactive: [13] 94 % of control | [14] 89 % of control

O=C1C2C3CCC(O3)C2C(=O)N1CCO (stereo not drawn)
inactive: [4] 96 % of control | [5] 89 % of control | [6] 98 % of control

Cc1cc(=O)oc2c3c4c(cc12)CCCN4CCC3
inactive: dose: 100.0 mg/kg/injection, schedule: Q04DX003 (ip), vehicle: Klucel (hydroxypropylcellulose) (HPC) 111 % of control | dose: 200.0 mg/kg/injection, schedule: Q04DX003 (ip), vehicle: Klucel (hydroxypropylcellulose) (HPC) 109 % of control
